Test results: US20120245193A1, “PER[…] μ OPIOID ANTAGONISTS” (Alkermes, Inc., priority 2011, published 2012)

Legend:
[1] = test system: Male Swiss-Webster mice; experiment: PGE2 test of gut motility (inhibition of morphine's blockade of PGE2-induced diarrhea); type: in vivo
Procedure: A rodent model of gut motility model (Russell, et al., 1982; Eur. J. Pharm., 78: 255-61) was used to evaluate the bioavailability and efficacy of Compound-1 in […]. The PGE2 test of gut motility evaluates the inhibition of morphine's side effects. PGE2 (a prostaglandin) induces diarrhea in mice within 15 minutes of an intraperitoneal injection (0.1 mg/kg). Morphine (1 mg/kg, IP) blocks this effect. Peripherally-acting opioid antagonists inhibit morphine's blockade of PGE2-induced diarrhea. Male Swiss-Webster mice (n=10/group) were administered Compound-1 or a reference compound 15 minutes (IP or PO) prior to morphine and placed in a Plexiglas pie cage. PGE2 was administered 30 minutes after morphine. Observations of diarrhea were made 15 minutes after PGE2 administration. Duration of action was tested by adjusting the time between Compound-1 and morphine administration. FIGS. 2 and 3 show the effectiveness of reference compound methylnaltrexone (MNTX) and Compounds 1-4 to inhibit opioid-induced delay in gut motility by oral and IP administration.
(NTX represents naltrexone).

[2] = test system: patients diagnosed with opioid-induced bowel dysfunction (OBD); experiment: Multicenter, multi-dose study in patients with opioid-induced bowel dysfunction; type: in vivo, human
Procedure: In this multicenter, multi-dose study, 87 patients diagnosed with opioid-induced bowel dysfunction (OBD) during treatment with opioids for chronic, non-cancer pain were randomized to receive escalating doses of Compound-1 (1-100 mg), or placebo with a pre-defined dose escalation schedule. […] (FIG. 8).
The mean change from baseline in CSBMs per week for patients receiving 100 mg Compound-1 was 3.6 versus 0.8 in the placebo group (p=0.006), or a net increase of 2.8 CSBMs over placebo.

## C[N+]1(CC2CC2)CC[C@]23CC(=O)CC[C@@]2(O)[C@H]1Cc1ccc(C(N)=O)c(O)c13 (stereo partly drawn) [Compound-1]
[1]; minimal effective PO dose of Compound-1 vs minimal effective IP dose of MNTX, FIG. 7
  duration of action compared with MNTX: longer duration of action than MNTX
[1]; oral administration, FIG. 6
  dose relative to methylnaltrexone at which morphine's effects are blocked: 3 fold lower
[1]; oral administration, FIG. 6, compared with methylnaltrexone
  duration of blocking morphine's effects: up to 4 hours
[2]; 30 mg dose
  change from baseline in number of average spontaneous bowel movements (SBMs) in comparison to placebo: statistically significant increase
[2]; 100 mg
  net increase of CSBMs over placebo: 2.8 CSBMs
[2]; 100 mg dose
  average number of complete spontaneous bowel movements (CSBMs) per week from baseline as compared to placebo: clinically meaningful and statistically significant increase
  change from baseline in number of average spontaneous bowel movements (SBMs) in comparison to placebo: statistically significant increase
[2]; 100 mg once-daily
  net increase of SBMs over placebo: 3.9 SBMs
[2]; 100 mg once-daily, placebo 0.7, p=0.003
  mean change from baseline in the average number of SBMs per week: 4.6 SBMs per week
[2]; 100 mg, placebo 0.8, p=0.006
  mean change from baseline in CSBMs per week: 3.6 CSBMs per week
[2]; escalating doses 1-100 mg
  opioid use: no increase in opioid use
  reversal of analgesia as measured by change in Numerical Pain Rating Scale (NPRS) scores: no reversal of analgesia
